Source: PubChem BioAssay (NCI)
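These data come from cells grown in 96-well plates and exposed to compound for 48 hours at five concentrations. GI50 = concentration required for 50% inhibition of growth. TGI denotes the concentration required for complete inhibition of growth.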

Assays:
Test in all cases: DTP human tumour cell line panel, 48 h
[1] = system: ACHN renal
[2] = system: COLO 205 colon
[3] = system: HCT-116 colon
[4] = system: NCI-H23 lung
[5] = system: NCI-H460 lung
[6] = system: OVCAR-4 ovarian
[7] = system: OVCAR-5 ovarian
[8] = system: RXF 393 renal
[9] = system: SR leukemia
[10] = system: TK-10 renal

| SMILES | TGI [1] | TGI [2] | TGI [3] | TGI [4] | TGI [5] | TGI [6] | TGI [7] | TGI [8] | TGI [9] | TGI [10] | GI50 [1] | GI50 [2] | GI50 [3] | GI50 [4] | GI50 [5] | GI50 [6] | GI50 [7] | GI50 [8] | GI50 [9] | GI50 [10] |
| --- | --- | --- | --- | --- | --- | --- | --- | --- | --- | --- | --- | --- | --- | --- | --- | --- | --- | --- | --- | --- |
| CC1(C)CCC2(C(=O)OC3OC(CO)C(O)C(O)C3O)CCC3(CO)C(=CCC4C5(C)CC(O)C(O)C(C)(C(=O)OC6OC(CO)C(O)C(O)C6O)C5CCC43C)C2C1 (stereo not given) | > 100 µM | > 100 µM | > 100 µM | > 100 µM | > 100 µM | > 100 µM | > 100 µM | > 100 µM | > 100 µM | > 100 µM | – | – | – | – | – | – | – | – | – | – |
| O=C(OCc1ccccc1C1CSCSC1)c1cc(C(=O)OCc2ccccc2C2CSCSC2)c(C(=O)OCc2ccccc2C2CSCSC2)cc1C(=O)OCc1ccccc1C1CSCSC1 | > 100 µM | > 100 µM | > 100 µM | > 100 µM | > 100 µM | > 100 µM | > 100 µM | > 100 µM | > 100 µM | > 100 µM | – | – | – | – | – | – | – | – | – | – |
| CCOC(=O)/C(C#N)=C/N(CC)/N=C/c1ccccc1 | > 100 µM | > 100 µM | > 100 µM | > 100 µM | > 100 µM | > 100 µM | > 100 µM | > 100 µM | > 100 µM | > 100 µM | – | – | – | – | – | – | – | – | – | – |
| Oc1[nH]c2ccccc2c1/C=c1/cc2c(c(-c3ccc(C(F)(F)F)cc3)n1)=Nc1ccccc1-2 | 11.5 µM | 5.13 µM | 10.1 µM | 31.8 µM | 10.5 µM | 13.6 µM | 33.8 µM | 15.3 µM | 11.3 µM | 22.9 µM | 2.72 µM | 1.95 µM | 2.9 µM | 10.9 µM | 2.56 µM | 2.75 µM | 11.8 µM | 3.08 µM | 1.27 µM | 5.54 µM |
| Cc1cc2occ(-c3ccc(Cl)cc3)c2c(=O)o1 | > 100 µM | > 100 µM | > 100 µM | > 100 µM | > 100 µM | > 100 µM | > 100 µM | > 100 µM | > 100 µM | > 100 µM | – | – | – | – | – | – | – | – | – | – |
| Cc1ccc2c(c1)CC1(C2=O)[C@H](c2ccccc2)C2C(=O)c3ccc(C)cc3C2[C@H]1c1ccccc1 (stereo not given in full) | > 100 µM | > 100 µM | > 100 µM | > 100 µM | > 100 µM | > 100 µM | > 100 µM | > 100 µM | > 100 µM | > 100 µM | – | – | – | – | – | – | – | – | – | – |
| Cn1c(=O)sc2cc(C(=S)N3CCOCC3)ccc21 | > 100 µM | > 100 µM | > 100 µM | > 100 µM | > 100 µM | > 100 µM | > 100 µM | > 100 µM | > 100 µM | > 100 µM | – | – | – | – | – | – | – | – | – | – |
| CC(C)=CCC[C@@H](C)c1c2[nH]c3ccccc3sc-2c(C)c(=O)c1=O | 10.8 µM | > 66.7 µM | 21.8 µM | 41.9 µM | > 27 µM | > 75 µM | > 75 µM | 32.7 µM | > 61.6 µM | > 75 µM | – | – | – | – | – | – | – | – | – | – |
| CC(=O)c1ccc(NC(=O)CSc2nc(C)nc3c2sc(=S)n3-c2ccccc2)cc1 | > 3.16 µM | > 3.16 µM | > 3.16 µM | > 3.16 µM | > 3.16 µM | > 3.16 µM | > 3.16 µM | > 3.16 µM | > 3.16 µM | > 3.16 µM | – | – | – | – | – | – | – | – | – | – |
